Measured values as given in US11160770B2, “Compounds, compositions and methods for treating oxidative DNA damage disorders” (Indiana University Research and Technology Corporation, priority 2011, dated 2021).

What was measured:
sensory neurons = test: Capsaicin-evoked iCGRP release from sensory neurons after ionizing radiation; type: cell-based, rat
Protocol: EXAMPLE. Cell Cultures. Neuronal cultures were prepared from adult male (150-175 g) Sprague-Dawley rats (Harlan, Indianapolis, Ind.) as described in the published literature. Briefly, hippocampal cells were dissociated using papain and mechanical agitation and separated by gradient centrifugation. The pellet of cells from a discontinuous gradient of Optiprep in L-15 media was washed then resuspended in 1 mL of growth media consisting of Neurobasal Medium supplemented with 0.5 mM L-glutamine, 2% B-27 Supplement minus AO, 50 mg/mL Penicillin-Streptomycin, and 5 ng/mL of Basic Fibroblast Growth Factor (BFGF). Approximately 60,000 cells were plated onto poly-D-lysine and laminin coated plates and grown for 6-14 days in 5% CO2 at 37° C. Growth medium was changed every other day. For sensory neuronal culture, cells were dissociated using collagenase and mechanical dissociation. Approximately 30,000 DRG cells were plated into each well of 12 well culture plates or onto Lab-Tek chamber slides all precoated with poly-D-lysine and laminin. […]
For release studies, the sensory neuronal cultures were washed once with HEPES buffer consisting of (in mM) 25 HEPES, 135 NaCl, 3.5 KCl, 2.5 CaCl2, 1 MgCl2, 3.3 D-glucose, and 0.1% bovine serum albumin, pH 7.4 and maintained at 37° C. […] After each incubation, the buffer was removed and the amount of CGRP in each sample was measured using radioimmunoassay as previously described. […] Total content was calculated by adding the total amount released in all incubations to the amount measured in the cells. The release data is calculated as fmol released/well/[…] or as a % of the total peptide content in the cells. […]
EXAMPLE. […] For these studies, the initially determined effects of exposing neuronal cultures to single or multiple doses of 10 Gy of IR on the content and release of iCGRP. 24 h after exposing sensory neurons to either one or two once-daily doses of 10 Gy, there was no significant effect on resting or capsaicin-evoked iCGRP release (as measured in fmol released/well of cells/10 min) or on the total content of CGRP in the cultures. […]

[1] = test system: cisplatin treated neuronal cells; test: Trypan blue cell survival following cisplatin treatment; type: cell-based, rat; conditions: E3330 20 μM; cisplatin 0-100 mM; trypan blue on days 11, 12, 13
From the text: EXAMPLE. Assay Methods. Sensory neuronal cultures grown on Lab-Tek microscope chamber slides were processed for immunofluorescence as previously published using a peripherin antibody (1:500) and HA antibody (1:500)[28]. Images were collected in red (peripherin), green (HA), and bright-field modes. A Zeiss LSM offline browser (R4.0: Carl Zeiss Inc.; Thornwood, N.Y.) was used to determine co-localization of peripherin and HA. For trypan blue exculsion, equal volume of 0.4% (w/v) Trypan blue to cell suspension were combined, mixed and scored under phase contrast microscope. Dead cells were those that take up the trypan blue and stain blue, whereas the live cells have yellow nuclei.
Referring to FIG. 2, cells were harvested on day 1. The corresponding siRNA (100 nM) was added on day 3, and removed on day 5. E3330 (20 μM) was dosed on day 7 and remained in the cultures for 2 days. E3330 (20 μM) and/or cisplatin ([…]) are each dosed day 10 with fresh media. Trypan blue assay is performed on days 11, 12, and 13. CGRP release assay is performed on day 11. N=3, *p<0.05.

DRG cells = test: FACS apoptosis assay in cisplatin treated DRG cells; type: cell-based; conditions: cisplatin 50 μM, E3330 50 μM co-treatment, 3 days
Protocol: EXAMPLE. DRG cells are treated with cisplatin (50 μM), with and without co-treatment with E3330 (50 μM), for 3 days. The cells are evaluated by FACS assay and compared to control.

Compound: CCCCCCCCC/C(=C\C1=C(C)C(=O)C(OC)=C(OC)C1=O)C(=O)O [Example 28]
- capsaicin-evoked iCGRP release after radiation (sensory neurons; 10 μM or 20 μM E3330, 3 doses of 10 Gy, 30 nM capsaicin, 24 h after last dose): completely blocked the effects of radiation on peptide release
- capsaicin-evoked iCGRP release in control cells (sensory neurons; 10 μM or 20 μM E3330, no radiation, 30 nM capsaicin): did not alter capsaicin-evoked release in control cells
- evoked release of iCGRP (sensory neurons; 20 μM E3330, APE1 knock-down and 266-177 overexpression, 10 Gy per day for three days): 5.9±0.5 % of total content
- cell death in cisplatin treated neuronal cells [1]: attenuate cell death
- apoptosis arising from cisplatin treatment (DRG cells): decrease apoptosis
